O=C(CN1C(=O)S/C(=C\c2ccc(Cl)cc2)C1=O)N1CCN(CC(O)(Cn2cncn2)c2cc(F)ccc2F)CC1 (stereo not given)
solubility (mole fraction)
Conditions | 293.15 K | 298.15 K | 303.15 K | 308.15 K | 313.15 K
in ethanol | 0.000161 | 0.0002 | 0.000254 | 0.000312 | 0.000377
in n-hexane | 2.34e-06 | 3.14e-06 | 4.1e-06 | 5.16e-06 | 6.28e-06
in n-octanol | 0.00047 | 0.000578 | 0.000723 | 0.000882 | 0.00115

Reference: BigSolDB 2.1
